How the values were obtained:
Format in all cases: in vivo
[1] = tested on: primary care patients with major depression disorder; experiment: 8-week, double-blind, randomised, placebo-controlled, flexible-dose clinical study
Source text: (§1) This has i.a. been found in the Chronic Mild Stress model (Willner P., Psychopharmachology 1997, 134, 319-329).
A total of 471 patients were randomised into the study. The all-patient-treated set comprised 469 patients and the full-analysis set comprised 468 patients.
There was an approximately 3 to 1 ratio of women to men in each treatment group, and almost all patients were Caucasian. The mean age was 43 years (SD 11). At baseline, the mean MADRS total score was approximately 29 for the treatment group, which signifies moderate to severely ill patients.

[2] = pharmacological and clinical studies (effect of R-citalopram, potency versus racemate)
Source text: This may be shown in functional in-vivo pharmacological models and studies of 5-HT-reuptake effect and or in behaviour models, for example depression models.

[3] = fixed dose studies (MADRS rating scale and Clinical Global Impression); conditions: escitalopram in a dose of 10 mg
[4] = tested on: animal models; experiment: Chronic Mild Stress model
Source text: as §1

[5] = Week 4, last observation carried forward, 10 mg escitalopram, 20 mg citalopram

Row | Molecule | adjusted mean change in MADRS total score versus placebo [1, 5] [points] | impact on the effect of escitalopram ([2]; in vivo) | onset of effect ([1]; 10 mg escitalopram, 20 mg citalopram, versus placebo) | therapeutic effect versus placebo on adjusted mean change in MADRS total score ([1]; Week 1 (p=0.023) to Week 4, observed cases) | CGI improvement and severity subscale versus placebo ([1]; Week 4, last observation carried forward) | CGI improvement and severity subscale versus placebo ([1]; from Week 1 onwards, 4-week period, observed cases) | effect as determined by MADRS rating scale and Clinical Global Impression (severity and improvement) [3] | speed of response [4] | potency relative to the racemate ([2]; pharmacological and clinical studies)
1 | CN(C)CCCC1(c2ccc(F)cc2)OCc2cc(C#N)ccc21 (racemic) [citalopram, reference compound] | 1.5 |  |  |  |  |  |  |  | 
2 | CN(C)CCC[C@]1(c2ccc(F)cc2)OCc2cc(C#N)ccc21 [R-citalopram, reference compound] |  | negative impact |  |  |  |  |  |  | 
3 | (S)-1-[3-(dimethylamino)propyl]-1-4-fluorophenyl)-1,3-dihydro-5-isobenzofurancarbonitdile [escitalopram] | 2.7 |  | showed effects after one week | significantly superior therapeutic effect | statistically significantly superior to placebo | significantly superior to placebo | at least same effect as citalopram in a dose of 40 mg | faster response than citalopram-racemate | substantially more than two times as potent as the racemate
